Columns and labels:
[1] = system: GFP-HttQ74-3 cell line; format: cell-based; settings: 100 uM, 5 hours exposure
From the text: FIG. 11. […] The 28Q-2 and 74Q-3 were used in most of our studies. The asterisk corresponds to a non-specific band that is detected by the GFP antibody. • B. Representative fluorescent images of GFP-HttPolyQ(28)-2 and GFP-HttPolyQ(74)-3 stable cell lines. Note that GFP fluorescence is located in both the cytoplasm and the nucleus, but that compact foci are only seen in the GFP-HttPolyQ(74)-3 cells. • C. Cells expressing expanded polyglutamine proteins are more sensitive to H2O2. The GFP-HftPolyQ(28)-2 and GFP-HttPolyQ(74)-3 stable cell lines were exposed to 200 μM concentration of H2O2 and after 5 hr, the cells were stained with both Hoechest 33342 and PI. […] Percentages of cell death calculated by determining the ratio of PI-positively stained cells to that of Hoechst-stained cells. […] Cell death was quantified as described in D above. • H. Representative images showing that ubiquilin-1 overexpression protects GFP-HttPolyQ(74)-3 expressing cells against serum withdrawal-induced cell death, in a dose-dependent manner. […] Bottom panel: Quantification of the spot intensity determined in three independent experiments.
Cell death was monitored either through examination of the nuclear morphology observed after Hoechst 33342 (1 μg/ml) staining, or through detecting the membrane selective permeability following 3 μM of propidium iodide (PI) staining. […]

[2] = system: Aph-1; assay: UBQLN overexpression in PS inducible cells, Aph-1 immunoblot; format: cell-based; settings: UBQLN overexpressed
From the text: (§1) (A) Examination of Nicastrin, Aph-1 and Pen-2 levels in PS1 cells lines that were either not induced (lanes 1 and 3) or induced with PonA (lanes 2 and 4) and either left untransfected (lanes 1 and 2) or transfected with UBQLN1 cDNA (lanes 3 and 4). Equivalent amounts of protein lysates were separated by 10% SDS-PAGE and immunoblotted with the appropriate antibodies. The filter was then reprobed an anti-actin to ensure equal loading. UBQLN overexpression decreases Pen-2 and Nicastrin levels.
(§2) Preparation of protein lysates, SDS-PAGE and immunoblotting of proteins were described previously. Primary antibodies used were rabbit anti-PS2 loop and rabbit anti-PS2 NH,-terminus, both raised to GST-PS2 fusion proteins; rabbit anti-ubiquilin [43] which reacts with UBQLN1 and UBQLN2 polypeptides; rat anti-PS1 NH2,-terminus (Chemicon International, Temecula, Calif.); rabbit anti-PS1 loop raised to GST-PS1 fusion proteins; goat anti-p27 and goat anti-actin (Santa Cruz Biotechnology, Santa Cruz, Calif.); mouse monoclonal anti-tubulin (Sigma-Aldrich, St. Louis, Mo.); rabbit anti-nicastrin (Abeam, Cambridge, Mass.), rabbit anti-Pen-2 (Zymed, San Francisco, Calif.); and rabbit anti-Aph-la (Covance, Berkeley, Calif.). […]

[3] = system: PS2 NTF; assay: Cycloheximide time course of PS2 fragment production in PS2 inducible cells with or without UBQLN1 transfection; format: cell-based, human; settings: PS2 inducible cell lysates, densitometry
Protocol: (A) Time course experiment using ponA-induced PS2 cell line cultures transfected with or without UBQLN1 expression plasmids were treated with […] cycloheximide for 0-6 hours. Equal amounts of protein lysate were separated by 8.5% SDS-PAGE and subsequently immunoblotted with anti-UBQLN antibody. Transfected cells reveal a 4-fold increase in UBQLN1 levels. Next, the protein lysates were immunoblotted using anti-PS2 NH,-terminal antibody to detect FL and NTF PS2 levels, as indicated. Note both FL PS2 turnover and NTF production levels in transfected versus untransfected cell lysates.
(B) Same experiment as (A) except FL PS expression was not induced using PonA.
(C) Graphs showing relative levels of PS2 polypeptides in PS2 inducible cell lysates after densitometric analysis of the immunoreactive bands shown in panels A and B. The levels were calculated by normalization of the signals relative to that in Lane 1. The Microsoft Excel program was used to produce a best-fit line for each graph. […] However, this is completely opposite of NTF levels. UBQLN not only decreases NTF levels at every time-point in the experiment, but it also slows the rate of NTF production, as determined by measuring the slope of each line.
HeLa and HEK293 cells were grown in DMEM supplemented with 10% FBS. PS1 and S2 inducible cell lines were generated by transfection of the pERV-expressing HEK293 cell line (Stratgene, IaIolla, Calif.) with FL human PS2 cDNA under the control of ponasteroneA (PonA)-inducible cassette in plasmid pEGSH (Stratagene). Stable integration of the pEGSH plasmid was achieved by selection for hygromycin resistance. PS expression was induced by adding PonA (final cont. 10 pM) to the medium. For proteasome inhibition studies, cultures were treated with 40 uM MG132 (Calbiochem, San Diego, Calif.) for time periods as indicated. […]
To this end, protein synthesis was inhibited using cyclohexamide (CHX) and PS fragment production was monitored over a six-hour time period in UBQLN transfected and untransfected lysates that were either induced or uninduced for PS expression. […]

[4] = system: Nicastrin; assay: UBQLN overexpression in PS inducible cells, Nicastrin immunoblot; format: cell-based; settings: UBQLN overexpressed
From the text: as §1, §2

[5] = system: PS2 NTF; assay: Pulse-chase of PS2 NTF turnover with or without UBQLN overexpression; format: cell-based; settings: 35 hour chase, with vs without UBQLN overexpression
[6] = system: Pen-2; assay: UBQLN overexpression in PS inducible cells, Pen-2 immunoblot; format: cell-based; settings: induced lysates
From the text: as §1
(C) Densitometric analysis was used to quantify the extent of reduction. Each experiment was repeated more than three times.
as §2

For OO [H2O2], which cell death [1] is on record?
Its cell death is “approximately 30%”.

How did the Aph-1 levels [2] turn out when “UBQLN: ubiquilin protein overexpressed from cDNA plasmids, isoform not specified at the place” was run?
Its Aph-1 levels is “remain steady”.

And the “FL PS2 levels” value [3]?
The value was “increases FL PS2 levels dramatically”.

What about the “levels of mature Nicastrin” value [4] of the same compound?
The value was “decreased”.

And the “turnover of PS2 NTF” value [5]?
The value was “no significant difference”.

What about the “reduction of Pen-2 levels” value [6] of the same compound?
Its value is 2 fold.

Source: patent US20110166206A1, “UBIQUILIN REGULATION OF PRESENILIN ENDOPROTEOLYSIS, AND SUPPRESSION OF POLYGLUTAMINE-INDUCED TOXICITY IN CELLS” (UNIVERSITY OF MARYLAND BIOTECHNOLOGY INSTITUTE, priority 2005, published 2011)
